The subject of data set [1] is human breast cancer xenograft. As to the kind of experiment: Human breast cancer orthotopic xenograft mouse model, tumor growth. Type of data set: in vivo. The following applies: ~1 mg/kg (100 µl of 110 µM in PBS) injected into mammary fat pad three times a week, NSG mice, versus control peptoid 1 11mer-NLeu; caliper; P = 0.0014, t test. The method, then:
80,000 cells from a dissociated second generation metastatic breast cancer tumor were suspended in Medium 199 containing 25% Matrix Matrigel (Becton Dickinson 354248) and injected into the mammary fat pad of 4–8 week old NOD.Cg-Prkdc^scid Il2rg^tm1Wjl/SzJ (NSG) mice. After two weeks, 100 µl PBS containing 110 µM peptoid 1 or control peptide was injected into the mammary fat pad three times a week, roughly at a dose of 1 mg/kg. Tumor volumes were determined using direct caliper measurements following […] of treatment.
Human breast cancer cells were implanted in the mammary fat pad of immunocompromised mice.
Figure 5 Reduction of tumor volumes in a human breast cancer xenograft mouse model treated with peptoid 1. Cancer cells (8×10^4 cells) isolated from the second generation xenografts of human breast cancer tissues were implanted s.c. into the lower left mammary fat pads of 5–6-week-old immunocompromised NSG (NOD.Cg-Prkdc^scid Il2rg^tm1Wjl/SzJ) female mice. Two weeks after cell implantation, 100 µl of peptoid 1 and control peptoids were injected into xenografts at 110 µM in PBS (∼1 mg/kg) three times a week, up to 8 weeks. Tumor sizes were measured by a caliper. P = 0.0014, t test.

For another data set, the system named is human red blood cells. The conditions noted are these: concentration causing 10% hemolysis of human red blood cells; cited from earlier work. From the text: Table 2 Peptoid Cytotoxicity in cancer cell lines and control cells. | column: HC10 (µM) ** || The chain length is believed to influence not only the activity but also modes of action of cationic, amphipathic peptides, [34]. […] Thus we limited the chain length of peptoids to 13 residues at most, and studied 1 9mer which has the same charge-to-length ratio (CTLR) as peptoid ...

In data set [2] the test system is MCF-7 cells. In words: Apoptotic DNA ladder assay. Type of data set: cell-based, human. The conditions noted are these: 24 h treatment.
The test system of data set [3] is MCF-7 cells. In words: LDH leakage assay (plasma membrane integrity). Type of data set: cell-based, human. The following applies: 50 µM, LDH leakage caused by cell lysis solution as the 100% control, measured immediately after treatment. The method, then:
This assay is used to measure the membrane integrity as a function of the amount of cytoplasmic LDH (lactic dehydrogenase) released into the medium. Experiments were carried out according to the protocol of the In Vitro Toxicology Assay Kit, Lactic Dehydrogenase (LDH) based (Sigma-Aldrich). Briefly, cells were plated as described before, and peptoids were diluted similarly but in culturing media without phenol red to reduce background signal. After peptoid treatments, media supernatant were collected and centrifuged to remove any cell debris, and analyzed for LDH activity in a 96-well plate using the kit, absorbance at 490 nm and 690 nm measured using a microplate reader. All the following absorbance difference = A 490nm –A 690nm. Percentage of LDH leakage = (A -A testblank)/(A lysis -A blank)×100, where A is the average absorbance difference of the test wells and A lysis the average absorbance difference of wells with cells treated with cell lysis solution provided by the kit for 45 min. A testblank (media, diluted peptoids and LDH measuring reagents) and A blank (media and LDH measuring reagents) were background absorbance differences measured in the absence of cells.
These anticancer peptoids exert fast killing in cancer cells and are not affected by the multidrug resistance. […] The LDH assay measures membrane damage by quantifying the leakage of the cytoplasmic enzyme LDH. […]

The subject of the next data set is LNCaP (prostate cancer). In words: MTS cell viability assay, LNCaP. Type of data set: cell-based. The conditions noted are these: 72 h. The method, then:
This assay is a colorimetric method for determining the number of viable cells in proliferation. Aliquots of 100 µl media containing 1×10^4 cells were distributed into each well of a 96-well plate (BD Falcon). The following day, when cell density reaches about ∼40% confluency, the cell media were removed and replaced with serial dilutions of peptoid stocks in culturing media. For peptoid dilutions, peptoid stocks were initially diluted in media at 100 µM and then diluted by half in series using a multichannel pipette, and maintained in 100 µl media for each concentration with triple repeats. After peptoid solutions were transferred onto cells in 96-well plates, cells were incubated at 37°C for certain time periods. Then 20 µl of the CellTiter 96 Aqueous Non-Radioactive cell proliferation assay (Promega) reagent which contains a tetrazolium compound, [3-(4,5-dimethylthiazol-2-yl)-5-(3-carboxymethoxyphenyl)-2-(4-sulfophenyl)-2H-tetrazolium, inner salt; MTS(a)], was added to each well and cells were further incubated for 2 h to metabolize. The absorbance of formazan products were measured at 490 nm in a microplate reader (Molecular Devices). Percentage of cell viability = (A -A testblank)/(A control -A blank)×100, where A is the absorbance of the test well and A control the average absorbance of wells with cells not treated with peptoids. A testblank (media, MTS, and diluted peptoids) and A blank (media and MTS) were background absorbances measured in the absence of cells.
The activity and selectivity of these peptoids against cancer cells were evaluated in vitro. Their cytotoxicity was tested in three cancer cell lines, MCF-7 (human breast cancer), LNCaP (human prostate cancer), and OVCAR-3 (human ovarian cancer). To estimate the selectivity of these peptoids in vitro, hemolytic activities of some peptoids were cited from previously published work (Table 2 **column), and the MRC-5 cell line (human fibroblasts derived from fetal lung tissues) and primary dermal fibroblasts were also tested as normal cell controls. Briefly, cells were treated with peptoids diluted in culturing media for certain time periods, and then cell viability was measured via MTS assays.

Non-standard residues stand in square brackets, D forms with d. Residues, ends and D or L forms follow the SMILES beside them. Nspe = C[C@H](NCC(=O)O)c1ccccc1; Nlys = NCCCCNCC(=O)O

For the compound `C[C@@H](c1ccccc1)N(CC(N)=O)C(=O)CN(C(=O)CN(CCCCN)C(=O)CN(C(=O)CN(C(=O)CN(CCCCN)C(=O)CN(C(=O)CN(C(=O)CN(CCCCN)C(=O)CN(C(=O)CN(C(=O)CNCCCCN)[C@@H](C)c1ccccc1)[C@@H](C)c1ccccc1)[C@@H](C)c1ccccc1)[C@@H](C)c1ccccc1)[C@@H](C)c1ccccc1)[C@@H](C)c1ccccc1)[C@@H](C)c1ccccc1` [Peptoid 1, H-(NLys-Nspe-Nspe)4-NH2] (H-[Nlys][Nspe][Nspe][Nlys][Nspe][Nspe][Nlys][Nspe][Nspe][Nlys][Nspe][Nspe]-NH2), in data set [1], the tumor growth result is given as “significantly inhibited the tumor growth”. In the data set with human red blood cells, the HC10 is reported as 21 µM. For the same compound, the “typical apoptotic DNA ladders” value in the data set on MCF-7 cells [2] is “not observed”. Also, in the data set with MCF-7 cells [3], the “LDH (enzyme) leakage” value is on record as approximately 50%. Moreover, the “LC50 LNCaP (prostate cancer)” value with LNCaP (prostate cancer) is on record as 5 µM.

The record behind these values is publication PMC3938723, “Learning from Host-Defense Peptides: Cationic, Amphipathic Peptoids with Potent Anticancer Activity” (PLoS ONE, 2014).
